Read-outs that look alike come from different tables or passages of the source.
How the values were obtained:
Format in all cases: in vivo
[1] = tested on: rice; assay: Herbicidal efficacy with Bensulfuron methyl and 2,4-D in Thailand (Table 19); conditions: 4 GAI/HA; 13 days after treatment
Description: (§1) Methyl 2-[[[[(4-methoxy-6-methyl-1,3,5-triazin-2-yl)amino]carbonyl]amino]sulfonyl]benzoate (Compound 1) and mixtures thereof with other compounds were applied as a spray (using a hand sprayer) to rice (either transplanted or direct seeded) in several rice growing areas in Southeast Asia and in the U.S. Tables 1-28 contain the results of these tests and clearly exemplify the utility of this invention. The details of each application are included in the appropriate table. [drawing 2]

[2] = tested on: Sphenoclea zeylanica; assay: as above; conditions: 4 GAI/HA; 13 days after treatment
Description: as §1

[3] = tested on: Cuperus difformis; assay: as above; conditions: 4 GAI/HA; 13 days after treatment
Description: as §1

[4] = tested on: direct seeded rice; conditions: 4 GM.A.I./HA; for PHYTO at 2WAA: scale 0-10
Description: as §1

[5] = tested on: direct seeded rice; assay: Field test with Bensulfuron methyl in direct seeded rice, yield (Table 10)
Description: as §1

[6] = tested on: Jussiaea linifolia; assay: Field test applied at 18 DAS in direct seeded rice (Table 12); conditions: 4 GM.A.I./HA, scale 0-10
Description: as §1

[7] = tested on: Sphenoclea zeylanica; assay: as above; conditions: 4 GM.A.I./HA, scale 0-10
Description: as §1

[8] = tested on: FIMBRISTYLIS MILIACEA; assay: as above; conditions: 4 GM.A.I./HA, scale 0-10
Description: as §1

[9] = tested on: Cyperus iria; assay: as above; conditions: 4 GM.A.I./HA, scale 0-10
Description: as §1

[10] = tested on: SEDGE; assay: Field test applied 7 DAS in direct seeded rice in the Philippines, cover (Table 14); conditions: 47 DAA
Description: as §1

[11] = tested on: Barnyardgrass (Echinochloa crus-galli); assay: as above; conditions: 47 DAA
Description: as §1

[12] = tested on: Sphenoclea zeylanica; assay: Field test with Bensulfuron methyl in direct seeded rice (Table 10); conditions: 10 = complete control
Description: as §1

[13] = tested on: Cyperus iria; assay: as above; conditions: 10 = complete control
Description: as §1

[14] = tested on: Marsilea crenata; assay: as above; conditions: 10 = complete control
Description: as §1

[15] = tested on: Sphenoclea zeylanica; assay: Field test applied at 25 DAS in direct seeded rice (Table 13); conditions: 4 GM.A.I./HA, scale 0-10
Description: as §1

[16] = tested on: Cyperus iria; assay: as above; conditions: 4 GM.A.I./HA, scale 0-10
Description: as §1

[17] = tested on: direct seeded rice; assay: Field test applied 7 DAS in direct seeded rice in the Philippines, phytotoxicity (Table 14); conditions: 30 DAA
Description: as §1

[18] = tested on: WEED; assay: Effects in combination with Bensulfuron Methyl and Thiobencarb or Pretilachlor on weed control (Table 25); conditions: rate 2 g ai/ha, scale 0 to 10, treated at 2.0 leaf stage, evaluated four weeks later
Description: as §1

[19] = tested on: rice; assay: Effects in combination with Bensulfuron Methyl and Thiobencarb or Pretilachlor on rice growth (Table 23); conditions: rate 2 g ai/ha; var. Koshihikari, applied 7 days after transplanting, rated 21 days after application
Description: as §1

[20] = tested on: rice; assay: Herbicidal efficacy with Bensulfuron methyl and 2,4-D in Thailand (Table 20); conditions: 4 GAI/HA; 14 days after treatment
Description: as §1

[21] = tested on: Cuperus iria; assay: as above; conditions: 4 GAI/HA; 14 days after treatment
Description: as §1

[22] = tested on: Sphenoclea zeylanica; assay: as above; conditions: 4 GAI/HA; 14 days after treatment
Description: as §1

[23] = tested on: Ludwigia linifolia; assay: as above; conditions: 4 GAI/HA; 14 days after treatment
Description: as §1

[24] = tested on: FIMBRISTYLIS MILIACEA; assay: as above; conditions: 4 GAI/HA; 14 days after treatment
Description: as §1

[25] = tested on: rice; assay: Herbicidal efficacy with Bensulfuron methyl and 2,4-D in Thailand (Table 18); conditions: 4 GAI/HA; 13 days after treatment
Description: as §1

[26] = tested on: Sphenoclea zeylanica; assay: as above; conditions: 4 GAI/HA; 13 days after treatment
Description: as §1

[27] = tested on: Cyperus difformis; assay: as above; conditions: 4 GAI/HA; 13 days after treatment
Description: as §1

[28] = tested on: Sphenoclea zeylanica; assay: Field test applied at 7 DAS in direct seeded rice (Table 11); conditions: 4 GM.A.I./HA, scale 0-10
Description: as §1

[29] = tested on: Cyperus difformis; assay: as above; conditions: 4 GM.A.I./HA, scale 0-10
Description: as §1

[30] = tested on: WEED; assay: Effects in combination with Bensulfuron Methyl and Thiobencarb or Pretilachlor on weed control (Table 24); conditions: rate 2 g ai/ha, scale 0 to 10, treated at 1.0 leaf stage, evaluated four weeks later
Description: as §1

[31] = tested on: WEED; assay: Field test applied 7 DAS in direct seeded rice in the Philippines, weed cover (Table 14); conditions: 47 DAA
Description: as §1

Structure (SMILES): COC(=O)c1ccccc1S(=O)(=O)NC(=O)Nc1nc(C)nc(OC)n1 [Compound 1, Methyl 2-[[[[(4-methoxy-6-methyl-1,3,5-triazin-2-yl)amino]carbonyl]amino]sulfonyl]benzoate]
- % CONTROL OR INJURY RICE [1]: 0%
- % CONTROL OR INJURY SZ [2]: 93%
- % CONTROL OR INJURY CD [3]: 100%
- YIELD ([4]; 7 DAS): 4.90 TONS/HA
- PHYTO at 2WAA ([4]; 7 DAS): 0
- YIELD ([4]; 18 DAS): 4.65 TONS/HA
- PHYTO at 2WAA ([4]; 18 DAS): 0
- YIELD ([4]; 25 DAS): 5.04 TONS/HA
- PHYTO at 2WAA ([4]; 25 DAS): 0
- YIELD ([5]; 2 GAI/HA): 3.62 TONS/HA
- YIELD ([5]; 4 GAI/HA): 3.62 TONS/HA
- WEED CONTROL at 6 WAA JL [6]: 7.67
- WEED CONTROL at 6 WAA SZ [7]: 6.33
- WEED CONTROL at 6 WAA FM [8]: 0
- WEED CONTROL at 6 WAA CI [9]: 0.33
- % SEDGE COVER ([10]; 1.65 G AI/HA): 5%
- % SEDGE COVER ([10]; 2.40 G AI/HA): 6%
- % SEDGE COVER ([10]; 3.33 G AI/HA): 4%
- % BYG COVER ([11]; 1.65 G AI/HA): 26%
- % BYG COVER ([11]; 2.40 G AI/HA): 35%
- % BYG COVER ([11]; 3.33 G AI/HA): 35%
- WEEDS CONTROL at 4 WAA SZ ([12]; 2 GAI/HA): 7.93
- WEEDS CONTROL at 4 WAA SZ ([12]; 4 GAI/HA): 9.33
- WEEDS CONTROL at 4 WAA CI ([13]; 2 GAI/HA): 0
- WEEDS CONTROL at 4 WAA CI ([13]; 4 GAI/HA): 0
- WEEDS CONTROL at 4 WAA MC ([14]; 2 GAI/HA): 10
- WEEDS CONTROL at 4 WAA MC ([14]; 4 GAI/HA): 10
- WEED CONTROL at 6 WAA SZ [15]: 9.53
- WEED CONTROL at 6 WAA CI [16]: 0
- PHYTO (1-9) ([17]; 1.65 G AI/HA): 2
- PHYTO (1-9) ([17]; 2.40 G AI/HA): 2.3
- PHYTO (1-9) ([17]; 3.33 G AI/HA): 3.3
- WEED CONTROL RATINGS CD ([18]; Cyperus difformis): 7
- WEED CONTROL RATINGS CS ([18]; Cyperus serotinus): 0
- WEED CONTROL RATINGS EO ([18]; Echinochloa oryzicola): 1
- WEED CONTROL RATINGS BL ([18]; Lindernia pyxidaria): 10
- WEED CONTROL RATINGS MV ([18]; Monochoria vaginalis): 10
- WEED CONTROL RATINGS SP ([18]; Sagittaria pygmaea): 8
- WEED CONTROL RATINGS SJ ([18]; Scirpus juncoides): 6
- CROP TOLERANCE DW (Dry weight relative to untreated check) [19]: 73%
- CROP TOLERANCE PH (Plant height relative to untreated check) [19]: 86%
- CROP TOLERANCE VA (Visual crop injury) [19]: 3%
- % CONTROL OR INJURY RICE [20]: 0%
- % CONTROL OR INJURY CI [21]: 0%
- % CONTROL OR INJURY SZ [22]: 60%
- % CONTROL OR INJURY LL [23]: 67%
- % CONTROL OR INJURY FM [24]: 0%
- % CONTROL OR INJURY RICE [25]: 0%
- % CONTROL OR INJURY SZ [26]: 98%
- % CONTROL OR INJURY CD [27]: 100%
- WEED CONTROL at 6 WAA SZ [28]: 10
- WEED CONTROL at 6 WAA CD [29]: 10
- WEED CONTROL RATINGS CD ([30]; Cyperus difformis): 10
- WEED CONTROL RATINGS CS ([30]; Cyperus serotinus): 1
- WEED CONTROL RATINGS EO ([30]; Echinochloa oryzicola): 1
- WEED CONTROL RATINGS BL ([30]; Lindernia pyxidaria): 10
- WEED CONTROL RATINGS MV ([30]; Monochoria vaginalis): 10
- WEED CONTROL RATINGS SP ([30]; Sagittaria pygmaea): 8
- WEED CONTROL RATINGS SJ ([30]; Scirpus juncoides): 7
- % WEED COVER ([31]; 1.65 G AI/HA): 29%
- % WEED COVER ([31]; 2.40 G AI/HA): 35%
- % WEED COVER ([31]; 3.33 G AI/HA): 35%
